This note sets out measurements from ChEMBL document CHEMBL4613209, “Quinolone hybrids and their anti-cancer activities: An overview” (Eur J Med Chem, 2019).

Usually IC50 stands for the point on the concentration scale where inhibition reaches its midpoint.

Common to all, as to format: functional, cell-based
For one assay, the system named is SW480. Description: Cytotoxicity against human SW480 cells assessed as reduction in cell viability by MTT assay.
A further assay relates to EJ. Description: Cytotoxicity against human EJ cells assessed as reduction in cell viability by MTT assay. In general terms: Formazan colour is commonly taken as a measure of viable cells.
The next assay concerns SK-MEL3. Description: Cytotoxicity against human SK-MEL-3 cells assessed as reduction in cell viability by MTT assay.
For another assay, the system named is A-431. Description: Cytotoxicity against human A431 cells assessed as reduction in cell viability by MTT assay.
A further assay has as its system MCF7. Description: Cytotoxicity against human MCF7 cells assessed as reduction in cell viability by MTT assay.
A further assay has as its system L1210. Description: Cytotoxicity against mouse L1210 cells assessed as reduction in cell viability.
The next assay relates to HL-60. Description: Cytotoxicity against human HL60 cells assessed as reduction in cell viability.
A further assay has as its system CHO. Description: Cytotoxicity against CHO cells assessed as reduction in cell viability. The conditions noted are these: Cricetulus griseus.

Take `CO/N=C(/CN1CCN(c2cc3c(cc2F)c(=O)c(C(=O)O)cn3C2CC2)CC1)c1ccc(Cl)s1`: the IC50 in the assay on SW480, in the assay on EJ, in the assay on SK-MEL3, in the assay with A-431 and in the assay with MCF7 was no more than 20 µM in each case.

For the compound `CCn1cc(C(=O)O)c(=O)c2cc(F)c(N3CCN(CC(=O)c4ccc(Cl)s4)CC3)nc21`, the IC50 in the assay with SW480, in the assay on EJ, in the assay with SK-MEL3, in the assay with A-431 and with MCF7 was no less than 100 µM throughout.

For `CC1COc2c(N3CCN(C)CC3)c(F)cc3c(=O)c(-c4nnc(-c5cn(C6CC6)c6cc(N7CCN(C)CC7)c(F)cc6c5=O)o4)cn1c23` (stereo not drawn), the IC50 with L1210, in the assay with HL-60 and in the assay with CHO was 0.26 to 14.5 µM throughout.

Consider `CCn1cc(-c2nnc(-c3cn(C4CC4)c4cc(N5CCNCC5)c(F)cc4c3=O)o2)c(=O)c2cc(F)c(N3CCNCC3)cc21`, for which the half-maximal inhibitory concentration (IC50) with L1210, in the assay on HL-60 and in the assay on CHO was 0.26 to 14.5 µM each time.

Turning to `CCn1cc(C(=O)O)c(=O)c2cc(F)c(N3CCN(C/C(=N/O)c4ccc(Cl)s4)CC3)cc21`, the IC50 in the assay on SW480, with EJ, in the assay with SK-MEL3, in the assay on A-431 and with MCF7 was no more than 20 µM each time.

For `C[C@H]1COc2c(N3CCN(C)CC3)c(F)cc3c(=O)c(-c4nnc(-c5cn(C6CC6)c6cc(N7CCN(C)CC7)c(F)cc6c5=O)o4)cn1c23`, the IC50 with L1210, with HL-60 and in the assay with CHO was 0.26 to 14.5 µM each time.

With `O=C(O)c1cn(C2CC2)c2cc(N3CCN(C/C(=N/OCc4ccccc4)c4ccc(Cl)s4)CC3)c(F)cc2c1=O`, the IC50 in the assay with SW480, in the assay with EJ, in the assay with SK-MEL3, in the assay on A-431 and with MCF7 was no more than 20 µM each time.

With `O=C(O)c1cn(C2CC2)c2cc(N3CCN(C/C(=N/O)c4ccc(Cl)s4)CC3)c(F)cc2c1=O`, the IC50 in the assay with SW480, with EJ, with SK-MEL3, in the assay with A-431 and in the assay with MCF7 was no more than 20 µM throughout.

In the case of `CCN1CCN(c2cc3c(cc2F)c(=O)c(-c2nnc(-c4cn(C5CC5)c5cc(N6CCNCC6)c(F)cc5c4=O)o2)cn3C2CC2)CC1`, the IC50 with L1210, in the assay on HL-60 and in the assay with CHO was 0.26 to 14.5 µM in each case.

As to `O=C(CN1CCN(c2cc3c(cc2F)c(=O)c(C(=O)O)cn3C2CC2)CC1)c1ccc(Cl)s1`, the IC50 in the assay with SW480, with EJ, in the assay on SK-MEL3, in the assay with A-431 and in the assay on MCF7 was no less than 100 µM in each case.

For the compound `O=c1c(-c2nnc(-c3cn(C4CC4)c4cc(N5CCNCC5)c(F)cc4c3=O)o2)cn(C2CC2)c2cc(N3CCNCC3)c(F)cc12`, the IC50 with L1210, with HL-60 and in the assay with CHO was 0.26 to 14.5 µM in each case.

Regarding `CCn1cc(C(=O)O)c(=O)c2cc(F)c(N3CCN(C/C(=N/OC)c4ccc(Cl)s4)CC3)nc21`, the IC50 in the assay with SW480, with EJ, in the assay with SK-MEL3, in the assay with A-431 and in the assay on MCF7 was no more than 20 µM throughout.

With `CCN1CCN(c2cc3c(cc2F)c(=O)c(-c2nnc4sc(-c5cn6c7c(c(N8CCN(C)CC8)c(F)cc7c5=O)OC[C@@H]6C)nn24)cn3C2CC2)CC1`, the half-inhibitory concentration (IC50) in the assay on L1210, with HL-60 and in the assay with CHO was 0.12 to 5.2 µM throughout.

For the compound `CCn1cc(C(=O)O)c(=O)c2cc(F)c(N3CCN(C/C(=N/O)c4ccc(Cl)s4)CC3)nc21`, the IC50 with SW480, with EJ, in the assay with SK-MEL3, with A-431 and in the assay with MCF7 was no more than 20 µM throughout.

Turning to `CCn1cc(C(=O)O)c(=O)c2cc(F)c(N3CCN(CC(=O)c4ccc(Cl)s4)CC3)cc21`, the IC50 with SW480, in the assay with EJ, in the assay with SK-MEL3, with A-431 and in the assay on MCF7 was no less than 100 µM in each case.
